Where a name gives a salt, the structure may show the parent alone. Read-outs that look alike come from different tables or passages of the source.
Experiment: Chiral plasma pharmacokinetics of MDMA and its phase I and II metabolites after controlled MDMA administration
Format: in vivo, human
Settings: for AUC(0-t) / Cmax / half-life / Tmax: human, plasma; for change in AUC24 after bupropion pretreatment / change in Cmax after bupropion pretreatment: bupropion+MDMA vs placebo+MDMA, CYP2D6 EMs, unsigned = increase; for reduction of Cmax by bupropion: metabolite stereoisomers, bupropion pretreatment vs placebo (abstract)
Experimental: Blood plasma samples were analyzed non-stereoselectively as reported previously and reanalyzed for the present report using liquid chromatography-mass spectrometry/mass spectrometry after chiral derivatization with Marfey’s reagent as described previously. The method was fully validated, including selectivity, recovery, matrix effects, bias and imprecision, stability, and limit of quantification.

[1] = both sexes, oral, 125 mg, placebo+MDMA (125 mg), CYP2D6 EM, n=13, plasma, read-out: AUC0-24h S
[2] = both sexes, oral, 125 mg, placebo+MDMA (125 mg), CYP2D6 EM, n=13, plasma, read-out: Cmax S
[3] = both sexes, oral, 125 mg, placebo+MDMA (125 mg), CYP2D6 EM, n=13, plasma, read-out: t1/2 S (converted)
[4] = both sexes, oral, 125 mg, placebo+MDMA (125 mg), CYP2D6 EM, n=13, plasma, read-out: tmax S
[5] = both sexes, oral, bupropion+MDMA (125 mg), CYP2D6 EM (EM/Bup), n=13, plasma, read-out: AUC0-24h S
[6] = both sexes, oral, bupropion+MDMA (125 mg), CYP2D6 EM (EM/Bup), n=13, plasma, read-out: Cmax S
[7] = both sexes, oral, bupropion+MDMA (125 mg), CYP2D6 EM (EM/Bup), n=13, plasma, read-out: t1/2 S (converted)
[8] = both sexes, oral, bupropion+MDMA (125 mg), CYP2D6 EM (EM/Bup), n=13, plasma, read-out: tmax S
[9] = bupropion+MDMA (125 mg), CYP2D6 EM (EM/Bup), n=13, plasma
[10] = im, placebo+MDMA (125 mg), CYP2D6 IM, n=3, plasma, read-out: AUC0-24h S
[11] = im, placebo+MDMA (125 mg), CYP2D6 IM, n=3, plasma, read-out: Cmax S
[12] = im, placebo+MDMA (125 mg), CYP2D6 IM, n=3, plasma, read-out: t1/2 S (converted)
[13] = im, placebo+MDMA (125 mg), CYP2D6 IM, n=3, plasma, read-out: tmax S
[14] = placebo+MDMA (125 mg), CYP2D6 EM, n=13, plasma
[15] = placebo+MDMA (125 mg), CYP2D6 IM, n=3, plasma
[16] = placebo-pretreated EMs, same-configuration MDMA enantiomer
[17] = bupropion-pretreated CYP2D6 EMs
[18] = both sexes, oral, 125 mg, placebo+MDMA (125 mg), CYP2D6 EM, n=13, plasma, read-out: AUC0-24h R
[19] = both sexes, oral, 125 mg, placebo+MDMA (125 mg), CYP2D6 EM, n=13, plasma, read-out: tmax R
[20] = both sexes, oral, bupropion+MDMA (125 mg), CYP2D6 EM (EM/Bup), n=13, plasma, read-out: AUC0-24h R
[21] = both sexes, oral, bupropion+MDMA (125 mg), CYP2D6 EM (EM/Bup), n=13, plasma, read-out: Cmax R
[22] = both sexes, oral, bupropion+MDMA (125 mg), CYP2D6 EM (EM/Bup), n=13, plasma, read-out: t1/2 R (converted)
[23] = both sexes, oral, bupropion+MDMA (125 mg), CYP2D6 EM (EM/Bup), n=13, plasma, read-out: tmax R
[24] = both sexes, oral, placebo+MDMA (125 mg), CYP2D6 EM, n=13, plasma, read-out: Cmax R
[25] = both sexes, oral, placebo+MDMA (125 mg), CYP2D6 EM, n=13, plasma, read-out: t1/2 R (converted)

Row | SMILES | metabolite/MDMA ratio, mean constant (after approximately 2 h) (IMs) | metabolite/MDMA ratio, mean initial (highest, first hour) (IMs) | AUC(0-t) [1] [µM·h] | Cmax [2] [nM] | half-life [3] [h] | Tmax [4] [h] | AUC(0-t) [5] [µM·h] | Cmax [6] [nM] | half-life [7] [h] | Tmax [8] [h] | AUCtotal S [9] | change in AUC24 after bupropion pretreatment [%] | change in Cmax after bupropion pretreatment [%] | metabolite/MDMA ratio, mean constant (after approximately 2 h) (bupropion-pretreated EMs) | metabolite/MDMA ratio, mean initial (highest, first hour) (bupropion-pretreated EMs) | AUC(0-t) [10] [µM·h] | Cmax [11] [nM] | half-life [12] [h] | metabolite/MDMA ratio, mean constant (after approximately 2 h) (placebo-pretreated EMs) | metabolite/MDMA ratio, mean initial (highest, first hour) [16] | other results
1 | CN[C@@H](C)Cc1ccc(O)c(OS(=O)(=O)O)c1 [S-DHMA 3-sulfate] | 0.42 | 8.8 | 6.3 | 590 | 7.3 | 1.5 | 2.8 | 200 | 11.3 | 2.4 | 3.7 (2.1) μmol/l*h-1 | -56 | -67 | 0.34 | 1.8 | 3 | 280 | 7 | 1.1 | 33 | Tmax [13]: 1.9 h; AUCtotal S [14]: 7.1 (3.1) μmol/l*h-1; AUCtotal S [15]: 3.3 (1.1) μmol/l*h-1
2 | CNC(C)Cc1ccc(OC2OC(C(=O)O)C(O)C(O)C2O)c(OC)c1 (stereo not shown) [S-HMMA glucuronide] | 0.20 | 0.30 | 5.2 | 490 | 6.1 | 2.9 | 1.3 | 88 | 9 | 4.9 | 1.7 (1.0) μmol/l*h-1 | -74 | -82 | 0.20 | 0.10 | 1.3 | 99 | 7.1 | 1.3 | 5.6 | tonset (time of first detection), mean [17]: 0.71 h; Tmax [13]: 4 h; AUCtotal S [14]: 5.5 (3.9) μmol/l*h-1; AUCtotal S [15]: 1.5 (0.83) μmol/l*h-1; tonset (time of first detection), mean (placebo-pretreated CYP2D6 EMs): 0.38 h
3 | CN[C@@H](C)Cc1ccc(OS(=O)(=O)O)c(OC)c1 [S-HMMA sulfate] | 0.28 | 2.3 | 4.2 | 410 | 6.6 | 1.6 | 1.6 | 110 | 11.1 | 2.8 | 2.2 (0.75) μmol/l*h-1 | -61 | -72 | 0.21 | 0.26 | 1.7 | 140 | 6.9 | 0.86 | 17.7 | tonset (time of first detection), mean [17]: 0.56 h; Tmax [13]: 2.5 h; AUCtotal S [14]: 4.6 (1.2) μmol/l*h-1; AUCtotal S [15]: 1.9 (0.34) μmol/l*h-1; tonset (time of first detection), mean (placebo-pretreated CYP2D6 EMs): 0.33 h
4 | CN[C@H](C)Cc1ccc(O)c(OS(=O)(=O)O)c1 [R-DHMA 3-sulfate] | 0.10 | 1.9 | – | – | – | – | – | – | – | – | – | -61 | -68 | 0.10 | 0.4 | – | – | – | 0.22 | 9.9 | AUC(0-t) [18]: 2.4 µM·h; Tmax [19]: 2.8 h; AUC(0-t) [20]: 0.96 µM·h; Cmax [21]: 50 nM; half-life [22]: 46.2 h; Tmax [23]: 3.8 h; Cmax [24]: 150 nM; half-life [25]: 20.2 h; AUCtotal R [9]: 3.1 (2.1) μmol/l*h-1; AUCtotal R [14]: 4.7 (2.5) μmol/l*h-1; AUCtotal R [15]: 2.6 (2.4) μmol/l*h-1
5 | CNC(C)Cc1ccc(OS(=O)(=O)O)c(O)c1 (stereo not shown) [DHMA 4-sulfate] | – | – | – | – | – | – | – | – | – | – | – | – | – | – | – | – | – | – | – | – | reduction of Cmax by bupropion: approximately 40%
6 | CNC(C)Cc1ccc(OS(=O)(=O)O)c(OC)c1 (stereo not shown) [HMMA sulfate] | – | – | – | – | – | – | – | – | – | – | – | – | – | – | – | – | – | – | – | – | change of R/S ratio for Cmax after bupropion pretreatment (bupropion vs placebo pretreatment): +21%; reduction of Cmax by bupropion: approximately 40%
7 | CNC(C)Cc1ccc(OC2OC(C(=O)O)C(O)C(O)C2O)c(OC)c1 (stereo not shown) [R-HMMA glucuronide] | 0.05 | 0.05 | – | – | – | – | – | – | – | – | – | -71 | -77 | 0.05 | 0.09 | – | – | – | 0.40 | 1.3 | AUC(0-t) [18]: 3.3 µM·h; Tmax [19]: 3.7 h; AUC(0-t) [20]: 0.96 µM·h; Cmax [21]: 49 nM; half-life [22]: 31.7 h; Tmax [23]: 7.6 h; Cmax [24]: 210 nM; half-life [25]: 16 h; AUCtotal R [9]: 2.3 (1.5) μmol/l*h-1; tonset (time of first detection), mean [17]: 0.73 h; AUCtotal R [14]: 5.5 (4.3) μmol/l*h-1; AUCtotal R [15]: 2.0 (1.7) μmol/l*h-1; tonset (time of first detection), mean (placebo-pretreated CYP2D6 EMs): 0.41 h
8 | CNC(C)Cc1ccc(O)c(OS(=O)(=O)O)c1 (stereo not shown) [DHMA 3-sulfate] | – | – | – | – | – | – | – | – | – | – | – | – | – | – | – | – | – | – | – | – | reduction of Cmax by bupropion: approximately 40%
9 | CN[C@H](C)Cc1ccc(OS(=O)(=O)O)c(O)c1 [R-DHMA 4-sulfate] | 0.05 | 0.94 | – | – | – | – | – | – | – | – | – | -43 | -54 | 0.05 | 0.89 | – | – | – | 0.13 | 4.9 | AUC(0-t) [18]: 1.3 µM·h; Tmax [19]: 2 h; AUC(0-t) [20]: 0.71 µM·h; Cmax [21]: 37 nM; half-life [22]: 49.9 h; Tmax [23]: 3.2 h; Cmax [24]: 80 nM; half-life [25]: 17.5 h; AUCtotal R [9]: 2.9 (2.2) μmol/l*h-1; AUCtotal R [14]: 2.4 (1.7) μmol/l*h-1; AUCtotal R [15]: 1.5 (1.0) μmol/l*h-1

— article PMC4788153, “Impact of Cytochrome P450 2D6 Function on the Chiral Blood Plasma Pharmacokinetics of 3,4-Methylenedioxymethamphetamine (MDMA) and Its Phase I and II Metabolites in Humans” (PLoS ONE, 2016)
